Earlier results on two compounds are cited in article PMC11170759, “Advancing Parkinson’s Disease Diagnostics: The Potential of Arylpyrazolethiazole Derivatives for Imaging α-Synuclein Aggregates” (ACS Omega, 2024).

The test system of one data set is α-synuclein aggregates. On the set-up: method as in PMID 34577548. The following applies: literature ligand of Figure 1; cited from earlier work.
Another data set addresses Aβ1-42 fibrils. Also noted: method as in PMID 33369690. The following applies: saturation binding, recombinant fibrils; read-out: Kd Aβ1-42 (reported); cited from earlier work.
Another data set addresses α-syn fibrils. Also noted: method as in PMID 33369690. The settings on record: saturation binding, recombinant fibrils; cited from earlier work.

As for `c1ccc(-c2ccc(C3CC(c4ccc5c(c4)OCO5)=NN3)o2)cc1` (stereo not drawn) [8b], the “reduction of ThT fluorescence” value in the data set with α-synuclein aggregates is 94%.

For `CN(C)c1ccc(-c2cc(-c3ccnc(Br)c3)[nH]n2)cc1` [MODAG-001], the equilibrium dissociation constant (Kd) at Aβ1-42 fibrils was 20 ± 10 nM; at α-syn fibrils, 0.6 ± 0.1 nM.
